Reference: patent US8461151B2, “Aryl-/heteroaryl-cyclohexenyl-tetraazabenzo[e]azulenes” (Hoffmann-La Roche Inc., priority 2010, dated 2013)
Where a name gives a salt, the structure may show the parent alone. Read-outs that look alike come from different tables or passages of the source.

Biological target: T1, human V1a receptor (Homo sapiens, UniProt P37288)
T1 construct: expressed in transfected cells; host or cells: HEK293 cells, transiently transfected; membranes
Assay: human V1a receptor binding studies (3H-Vasopressin SPA, membranes of transfected HEK293 cells)
Conditions: 3H-Vasopressin displacement, HEK293 cell membranes, SPA beads, 1 h at room temperature
Method: The human V1a receptor was cloned by RT-PCR from total human liver RNA. The coding sequence was subcloned in an expression vector after sequencing to confirm the identity of the amplified sequence. […] Cell membranes were prepared from HEK293-cells transiently transfected with the expression vector and grown in 20 liter fermenters with the following protocol.
50 g of cells are resuspended in 30 ml freshly prepared ice cold Lysis buffer (50 mM HEPES, 1 mM EDTA, 10 mM magnesium dichloride adjusted to pH=7.4+ complete cocktail of protease inhibitor (Roche Diagnostics)). Homogenized with Polytron for 1 min and sonicated on ice for 2×2 minutes at 80% intensity (Vibracell sonicator). The preparation is centrifuged 20 min at 500 g at 4° C., the pellet is discarded and the supernatant centrifuged 1 hour at 43,000 g at 4° C. (19,000 rpm). The pellet is resuspended in 12.5 ml Lysis buffer+12.5 ml sucrose 20% and homogenized using a Polytron for 1-2 min. The protein concentration is determined by the Bradford method and aliquots are stored at −80° C. until use. For binding studies 60 mg Yttrium silicate SPA beads (Amersham®) are mixed with an aliquot of membrane in binding buffer (50 mM Tris, 120 mM sodium chloride, 5 mM potassium chloride, 2 mM calcium dichloride, 10 mM magnesium dichloride) for 15 minutes with mixing. 50 μl of bead/membrane mixture is then added to each well of a 96 well plate, followed by 50 μl of 4 nM 3H-Vasopressin (American Radiolabeled Chemicals). For total binding measurement 100 μl of binding buffer are added to the respective wells, for non-specific binding 100 μl of 8.4 mM cold vasopressin and for compound testing 100 μl of a serial dilution of each compound in 2% dimethyl sulfoxide. The plate is incubated 1 h at room temperature, centrifuged 1 min at 1000 g and counted on a Packard Top-Count. Non-specific binding counts are subtracted from each well and data is normalized to the maximum specific binding set at 100%. To calculate an IC50 the curve is fitted using a non-linear regression model (XLfit) and the Ki is calculated using the Cheng-Prussoff equation.

[1] = Ki by Cheng-Prussoff from IC50, read-out: pKi (hV1a) (converted)

T1 sequence (P37288 whole entry): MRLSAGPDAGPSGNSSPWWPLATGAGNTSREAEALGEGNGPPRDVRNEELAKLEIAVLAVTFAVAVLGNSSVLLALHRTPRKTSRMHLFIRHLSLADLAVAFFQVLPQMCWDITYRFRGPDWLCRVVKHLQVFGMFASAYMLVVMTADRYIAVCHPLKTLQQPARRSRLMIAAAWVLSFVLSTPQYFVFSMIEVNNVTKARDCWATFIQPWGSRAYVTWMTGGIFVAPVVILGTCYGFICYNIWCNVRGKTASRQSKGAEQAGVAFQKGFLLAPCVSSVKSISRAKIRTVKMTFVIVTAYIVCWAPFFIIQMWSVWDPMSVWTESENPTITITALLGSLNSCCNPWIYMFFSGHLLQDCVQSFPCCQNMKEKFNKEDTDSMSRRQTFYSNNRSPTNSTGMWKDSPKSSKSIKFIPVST

Structure (SMILES)	Ki [1] [nM]	Ki (pKi (hV1a), Ki by Cheng-Prussoff from IC50) [nM]
Clc1ccc2c(c1)CNCc1nnc(C3CC=C(c4ccccc4)CC3)n1-2 (racemic) [Example 1, (RS)-8-Chloro-1-(4-phenyl-cyclohex-3-enyl)-5,6-dihydro-4H-2,3,5,10b-tetraaza-benzo[e]azulene hydrochloride]	10	
CN1Cc2cc(Cl)ccc2-n2c(nnc2C2CC=C(c3ccccc3)CC2)C1 (racemic) [Example 2, (RS)-8-Chloro-5-methyl-1-(4-phenyl-cyclohex-3-enyl)-5,6-dihydro-4H-2,3,5,10b-tetraaza-benzo[e]azulene]		2.69
Cc1ccccc1C1=CCC(c2nnc3n2-c2ccc(Cl)cc2CNC3)CC1 (racemic) [Example 3, (RS)-8-Chloro-1-(4-o-tolyl-cyclohex-3-enyl)-5,6-dihydro-4H-2,3,5,10b-tetraaza-benzo[e]azulene hydrochloride]	5.13	
Cc1ccccc1C1=CCC(c2nnc3n2-c2ccc(Cl)cc2CN(C)C3)CC1 (racemic) [Example 4, (RS)-8-Chloro-5-methyl-1-(4-o-tolyl-cyclohex-3-enyl)-5,6-dihydro-4H-2,3,5,10b-tetraaza-benzo[e]azulene]	2.09	
CC(C)(C)OC(=O)N1Cc2cc(Cl)ccc2-n2c(nnc2C2CC=C(c3ccc(F)cc3)CC2)C1 (racemic) [Example 5, (RS)-8-Chloro-1-[4-(4-fluoro-phenyl)-cyclohex-3-enyl]-4H,6H-2,3,5,10b-tetraaza-benzo[e]azulene-5-carboxylic acid tert-butyl ester]	8.32	
Fc1ccc(C2=CCC(c3nnc4n3-c3ccc(Cl)cc3CNC4)CC2)cc1 (racemic) [Example 6, (RS)-8-Chloro-1-[4-(4-fluoro-phenyl)-cyclohex-3-enyl]-5,6-dihydro-4H-2,3,5,10b-tetraaza-benzo[e]azulene hydrochloride]	29.5	
CN1Cc2cc(Cl)ccc2-n2c(nnc2C2CC=C(c3ccc(F)cc3)CC2)C1 (racemic) [Example 7, (RS)-8-Chloro-1-[4-(4-fluoro-phenyl)-cyclohex-3-enyl]-5-methyl-5,6-dihydro-4H-2,3,5,10b-tetraaza-benzo[e]azulene]	6.76	
CC(C)(C)OC(=O)N1Cc2cc(Cl)ccc2-n2c(nnc2C2CC=C(c3cccc(OC(F)(F)F)c3)CC2)C1 (racemic) [Example 8, (RS)-8-Chloro-1-[4-(3-trifluoromethoxy-phenyl)-cyclohex-3-enyl]-4H,6H-2,3,5,10b-tetraaza-benzo[e]azulene-5-carboxylic acid tert-butyl ester]	72.4	
FC(F)(F)Oc1cccc(C2=CCC(c3nnc4n3-c3ccc(Cl)cc3CNC4)CC2)c1 (racemic) [Example 9, (RS)-8-Chloro-1-[4-(3-trifluoromethoxy-phenyl)-cyclohex-3-enyl]-5,6-dihydro-4H-2,3,5,10b-tetraaza-benzo[e]azulene hydrochloride]	331	
CN1Cc2cc(Cl)ccc2-n2c(nnc2C2CC=C(c3cccc(OC(F)(F)F)c3)CC2)C1 (racemic) [Example 10, (RS)-8-Chloro-5-methyl-1-[4-(3-trifluoromethoxy-phenyl)-cyclohex-3-enyl]-5,6-dihydro-4H-2,3,5,10b-tetraaza-benzo[e]azulene]	58.9	
CC(C)(C)OC(=O)N1Cc2cc(Cl)ccc2-n2c(nnc2C2CC=C(c3cccc(F)c3Cl)CC2)C1 (racemic) [Example 11, (RS)-8-Chloro-1-[4-(2-chloro-3-fluoro-phenyl)-cyclohex-3-enyl]-4H,6H-2,3,5,10b-tetraaza-benzo[e]azulene-5-carboxylic acid tert-butyl ester]	8.13	
Fc1cccc(C2=CCC(c3nnc4n3-c3ccc(Cl)cc3CNC4)CC2)c1Cl (racemic) [Example 12, (RS)-8-Chloro-1-[4-(2-chloro-3-fluoro-phenyl)-cyclohex-3-enyl]-5,6-dihydro-4H-2,3,5,10b-tetraaza-benzo[e]azulene hydrochloride]	28.8	
CN1Cc2cc(Cl)ccc2-n2c(nnc2C2CC=C(c3cccc(F)c3Cl)CC2)C1 (racemic) [Example 13, (RS)-8-Chloro-1-[4-(2-chloro-3-fluoro-phenyl)-cyclohex-3-enyl]-5-methyl-5,6-dihydro-4H-2,3,5,10b-tetraaza-benzo[e]azulene]	5.75	
CC(C)(C)OC(=O)N1Cc2cc(Cl)ccc2-n2c(nnc2C2CC=C(c3cccc4ccccc34)CC2)C1 (racemic) [Example 14, (RS)-8-Chloro-1-(4-naphthalen-1-yl-cyclohex-3-enyl)-4H,6H-2,3,5,10b-tetraaza-benzo[e]azulene-5-carboxylic acid tert-butyl ester]	11	
Clc1ccc2c(c1)CNCc1nnc(C3CC=C(c4cccc5ccccc45)CC3)n1-2 (racemic) [Example 15, (RS)-8-Chloro-1-(4-naphthalen-1-yl-cyclohex-3-enyl)-5,6-dihydro-4H-2,3,5,10b-tetraaza-benzo[e]azulene hydrochloride]	112	
CN1Cc2cc(Cl)ccc2-n2c(nnc2C2CC=C(c3cccc4ccccc34)CC2)C1 (racemic) [Example 16, (RS)-8-Chloro-5-methyl-1-(4-naphthalen-1-yl-cyclohex-3-enyl)-5,6-dihydro-4H-2,3,5,10b-tetraaza-benzo[e]azulene]	19.1	
COc1ccc(F)cc1C1=CCC(c2nnc3n2-c2ccc(Cl)cc2CN(C(=O)OC(C)(C)C)C3)CC1 (racemic) [Example 17, (RS)-8-Chloro-1-[4-(5-fluoro-2-methoxy-phenyl)-cyclohex-3-enyl]-4H,6H-2,3,5,10b-tetraaza-benzo[e]azulene-5-carboxylic acid tert-butyl ester]	20.4	
COc1ccc(F)cc1C1=CCC(c2nnc3n2-c2ccc(Cl)cc2CNC3)CC1 (racemic) [Example 18, (RS)-8-Chloro-1-[4-(5-fluoro-2-methoxy-phenyl)-cyclohex-3-enyl]-5,6-dihydro-4H-2,3,5,10b-tetraaza-benzo[e]azulene hydrochloride]	97.7	
COc1ccc(F)cc1C1=CCC(c2nnc3n2-c2ccc(Cl)cc2CN(C)C3)CC1 (racemic) [Example 19, (RS)-8-Chloro-1-[4-(5-fluoro-2-methoxy-phenyl)-cyclohex-3-enyl]-5-methyl-5,6-dihydro-4H-2,3,5,10b-tetraaza-benzo[e]azulene]	10	
CC(C)(C)OC(=O)N1Cc2cc(Cl)ccc2-n2c(nnc2C2CC=C(c3cccc(C#N)c3)CC2)C1 (racemic) [Example 20, (RS)-8-Chloro-1-[4-(3-cyano-phenyl)-cyclohex-3-enyl]-4H,6H-2,3,5,10b-tetraaza-benzo[e]azulene-5-carboxylic acid tert-butyl ester]	46.8	
N#Cc1cccc(C2=CCC(c3nnc4n3-c3ccc(Cl)cc3CNC4)CC2)c1 (racemic) [Example 21, (RS)-3-[4-(8-Chloro-5,6-dihydro-4H-2,3,5,10b-tetraaza-benzo[e]azulen-1-yl)-cyclohex-1-enyl]benzonitrile hydrochloride]	427	
CN1Cc2cc(Cl)ccc2-n2c(nnc2C2CC=C(c3cccc(C#N)c3)CC2)C1 (racemic) [Example 22, (RS)-3-[4-(8-Chloro-5-methyl-5,6-dihydro-4H-2,3,5,10b-tetraaza-benzo[e]azulen-1-yl)-cyclohex-1-enyl]benzonitrile]	56.2	
CC(C)(C)OC(=O)N1Cc2cc(Cl)ccc2-n2c(nnc2C2CC=C(c3cc(F)ccn3)CC2)C1 (racemic) [Example 25, (RS)-8-Chloro-1-[4-(4-fluoro-pyridin-2-yl)-cyclohex-3-enyl]-4H,6H-2,3,5,10b-tetraaza-benzo[e]azulene-5-carboxylic acid tert-butyl ester]	4.68	
Fc1ccnc(C2=CCC(c3nnc4n3-c3ccc(Cl)cc3CNC4)CC2)c1 (racemic) [Example 26, (RS)-8-Chloro-1-[4-(4-fluoro-pyridin-2-yl)-cyclohex-3-enyl]-5,6-dihydro-4H-2,3,5,10b-tetraaza-benzo[e]azulene]	110	
CN1Cc2cc(Cl)ccc2-n2c(nnc2C2CC=C(c3cc(F)ccn3)CC2)C1 (racemic) [Example 27, (RS)-8-Chloro-1-[4-(4-fluoro-pyridin-2-yl)-cyclohex-3-enyl]-5-methyl-5,6-dihydro-4H-2,3,5,10b-tetraaza-benzo[e]azulene]	10.5	
Cc1nc(C2=CCC(c3nnc4n3-c3ccc(Cl)cc3CN(C(=O)OC(C)(C)C)C4)CC2)cs1 (racemic) [Example 34, (RS)-8-Chloro-1-[4-(2-methyl-thiazol-4-yl)-cyclohex-3-enyl]-4H,6H-2,3,5,10b-tetraaza-benzo[e]azulene-5-carboxylic acid tert-butyl ester]	3.72	
